Data reported in publication PMC5602112 (2017).

Tests used:
Assay in all cases: single-round in vitro transcription termination
Conditions in all cases: apparent; co-transcriptional
[1] = test system: metI SAM-I riboswitch transcript, wild-type (RNA, riboswitch) ACUUAGAAAAUUGAAAUCGAUAUUUCUUAUCGUGAGAGGUGGAGGGACUGGCCCUUAGAAACCUCAGCAACCGGCUUGUUUUGCAUUUGCAAAGCGCCAAGGUGCUAAAUCCAGCAAGCGUUUUUUAUGCUUGGAAGAUAAGAAGAAGCGUUAAACCCCUUCUUCUUAUGAAGAAGGGGUUUUUAUUUUGAAAAGGGAAGGUGUCAGCUAUAUGUCACAGCACGUUGAAACGAAAUUAGCUCAAAUUGGGAA
[2] = test system: metI SAM-I riboswitch transcript, U114A:A138U (RNA, riboswitch) ACUUAGAAAAUUGAAAUCGAUAUUUCUUAUCGUGAGAGGUGGAGGGACUGGCCCUUAGAAACCUCAGCAACCGGCUUGUUUUGCAUUUGCAAAGCGCCAAGGUGCUAAAACCAGCAAGCGUUUUUUAUGCUUGGAUGAUAAGAAGAAGCGUUAAACCCCUUCUUCUUAUGAAGAAGGGGUUUUUAUUUUGAAAAGGGAAGGUGUCAGCUAUAUGUCACAGCACGUUGAAACGAAAUUAGCUCAAAUUGGGAA
[3] = test system: metI SAM-I riboswitch transcript, GUU (U114A:A137U:A138U) (RNA, riboswitch) ACUUAGAAAAUUGAAAUCGAUAUUUCUUAUCGUGAGAGGUGGAGGGACUGGCCCUUAGAAACCUCAGCAACCGGCUUGUUUUGCAUUUGCAAAGCGCCAAGGUGCUAAAACCAGCAAGCGUUUUUUAUGCUUGGUUGAUAAGAAGAAGCGUUAAACCCCUUCUUCUUAUGAAGAAGGGGUUUUUAUUUUGAAAAGGGAAGGUGUCAGCUAUAUGUCACAGCACGUUGAAACGAAAUUAGCUCAAAUUGGGAA

T50 [1]: ~ 183 nM
T50 [2]: ~ 673 nM
T50 [3]: ~ 1.3 µM
SMILES: C[S+](CC[C@H](N)C(=O)O)C[C@H]1O[C@@H](n2cnc3c(N)ncnc32)[C@H](O)[C@@H]1O (stereo partly drawn)
